Laboratory results as given in patent US20250170101A1, “MONOACYLGLYCEROL LIPASE INHIBITORS AND USE THEREOF FOR THE TREATMENT AND MANAGEMENT OF PAIN AND RELATED CONDITIONS” (Psy Therapeutics, Inc., priority 2021, published 2025).
Read-outs that look alike come from different tables or passages of the source.

Assay: Plasma and brain concentrations after single intraperitoneal administration, Examples 23 and 24
Type: in vivo, male C57BL/6 mice
Settings: male, C57BL/6, mouse, IP 20 mg/kg
Procedure: This experiment was performed to determine plasma pharmacokinetics and estimate 2-AG levels in male C57BL/6 mice brain following a single intraperitoneal administration of Compound-74 (Dose: 5, 15, 50 and 150 mg/kg). The experiment was repeated at 150 mg/kg on 3 separate test dates to obtain the data shown in FIG. 1A (plasma and brain concentration of Compound 74 30 minutes after IP injection), and on the first and third test dates to obtain the data shown in FIG. 1B (brain concentration of 2-AG30 minutes after IP injection of Compound 74). • Compound 74, Molecular Wt.: 405.46 (Freebase), % Purity: Considered 100%. • Formulation: DMSO • Dose: 5, 15, 50 and 150 mg/kg • Dose volume: 2 mL/kg • Feeding regimen: freely fed • Groups:
Study Design: A total of thirty male mice were used into the study and divided in to five groups with six mice in each group (n=6 mice/group/treatment design). Animals in Group 1 to Group 4 were administered intraperitoneally with Compound 74 solution formulation at 5, 15, 50 and 150 mg/kg dose, respectively. Animals in Group 5 were administered intraperitoneally with vehicle at 2 mL/kg dose. Blood and brain samples were collected at 0.5 h post dose. Mice were euthanized by cervical dislocation and brain samples were dissected rapidly and snap frozen in liquid nitrogen, weighed and homogenized in 2 mL of acetonitrile containing 2-AGd5. Blood samples were centrifuged at 4000 rpm for 10 minutes at 4° C. Plasma was harvested and separated in pre-labeled tubes. All samples were stored below −70° C. until bioanalysis.
Analysis: Brain samples were processed for 2-AG estimation. 2-AG levels were the detected values. Plasma concentrations were determined by fit for purpose LC-MS/MS method. LLOQ: 5.09 ng/mL (Plasma and brain)
This experiment was performed to determine plasma pharmacokinetics and estimate 2-AG levels in male C57BL/6 mice brain following a single intraperitoneal administration of Compound-473 (Dose: 20 mg/kg). • Compound 473, Molecular Wt.: 463.41 (Freebase), % Purity: >98%. • Formulation: DMSO • Dose: 20 mg/kg • Dose volume: 10 mL/kg • Feeding regimen: Food and water ad libitum • Groups:
Study Design: A total of twelve C57BL/6 male mice were used in this study. Six animals were administered intraperitoneally with solution formulation of PSY-05-00473-002 at 20 mg/kg dose. Six animals were administered vehicle (5% NMP, 5% Solutol HS15 and 90% Normal saline) intraperitoneally at 10 mL/kg dose volume. Blood samples (approximately 60 μL) were collected under light isoflurane anesthesia from a set of six mice at 0.5 h. Plasma was harvested by centrifugation of blood and stored at −70±10° C. until analysis. After blood collection, mice were euthanized by cervical dislocation and brain samples were dissected rapidly and snapped frozen in liquid nitrogen and stored at −80. To homogenize, removed brain samples from the freezer, were divided into two equal hemispheres and weighed while still in frozen condition, and begun homogenization/extraction procedure without allowing the brain samples to thaw. One part is used for PK estimation and the other part is used for 2-AG estimation.
Analysis: For PK estimation, brain samples were homogenized in 2 volumes of PBS of brain weight. Total homogenate volume was three times of the brain weight. For 2-AG estimation, the frozen brain samples were homogenized in 2 mL acetonitrile containing 2-AGd5 (8.88 nmoles) will be incubated overnight at −20° C. to precipitate proteins. Blood samples were centrifuged at 10000 rpm for 10 minutes at 4° C. All samples were stored below −70° C. until bioanalysis. Plasma and brain homogenate samples were quantified by fit-for-purpose LC-MS/MS method (LLOQ: 1.02 ng/mL for plasma and 2.03 ng/mL for brain).

In the case of `O=C(c1cc(O)ccc1F)N1CC2(CC(n3cc(C(F)(F)F)c(-c4ccccc4F)n3)C2)C1` (single isomer, unassigned) [Compound 473, (2-fluoro-5-hydroxyphenyl){6-[3-(o-fluorophenyl)-4-(trifluoromethyl)-1-pyrazolyl]-2-aza-2-spiro[3.3]heptyl}methanone], the concentration at 0.5 h (brain, read-out: Brain Concentration (ng/g), Mean) was 2630 ng/g, the Kp at 0.5 h (brain/plasma, read-out: Brain/Plasma Ratio (kp), Mean) was 1.44 and the concentration at 0.5 h (plasma, read-out: Plasma Concentration (ng/mL), Mean) was 1820 ng/mL.
